Consider 47 compounds from ChEMBL document CHEMBL4732067, “Synthesis and evaluation of new compounds bearing 3-(4-aminopiperidin-1-yl)methyl magnolol scaffold as anticancer agents for the treatment of non-small cell lung cancer via targeting autophagy” (Eur J Med Chem, 2021).

The term IC50 denotes the concentration at which inhibition is half-maximal.

What all share (assay type): functional, cell-based
One assay deals with HCC827. Kind of assay: Antiproliferative activity against human HCC827 cells assessed as reduction in cell viability after 72 hrs by MTT assay. Conditions: HCC827, 72 h. A general note: Formazan colour is commonly taken as a measure of viable cells.
For another assay, the system named is NCI-H1975. In words: Antiproliferative activity against human NCI-H1975 cells assessed as reduction in cell viability after 72 hrs by MTT assay. The following applies: NCI-H1975, 72 h.
In another assay the test system is NCI-H460. Kind of assay: Antiproliferative activity against human NCI-H460 cells assessed as reduction in cell viability after 72 hrs by MTT assay. Conditions: NCI-H460, 72 h.

Where only a bound is given, the exact number is not on record here.

As to `C=CCc1ccc(O)c(-c2cc(CC=C)cc(CN3CCCC3)c2O)c1`, the half-inhibitory concentration (IC50) in the assay with HCC827, in the assay on NCI-H1975 and in the assay with NCI-H460 was more than 20 µM throughout.
Regarding `C#CCOc1ccc(CC=C)cc1-c1cc(CC=C)cc(CN2CCC(N)CC2)c1O`, the IC50 in the assay on HCC827, in the assay on NCI-H1975 and with NCI-H460 was more than 20 µM in each case.
Consider `C=CCc1ccc(O)c(-c2cc(CC=C)cc(CN3CCC(NC(=O)[C@H](N)CC(C)C)CC3)c2O)c1`, for which the concentration for half-maximal inhibition (IC50) in the assay on HCC827, in the assay with NCI-H1975 and in the assay on NCI-H460 was more than 20 µM throughout.
`C=CCc1ccc(O)c(-c2cc(CC=C)cc(CCN3CCC(N)CC3)c2O)c1`: the IC50 in the assay on HCC827, in the assay on NCI-H1975 and with NCI-H460 was more than 20 µM in each case.
As to `C=CCc1ccc(O)c(-c2cc(CC=C)cc(CN3CC[C@H](N)C3)c2O)c1`, the IC50 with HCC827, in the assay on NCI-H1975 and with NCI-H460 was more than 20 µM throughout.
For `C=CCc1ccc(OCCO)c(-c2cc(CC=C)cc(CN3CCC(N)CC3)c2O)c1`, the IC50 is 4.34 µM with HCC827, 6.84 µM in the assay with NCI-H1975 and 6.16 µM with NCI-H460.
On the same counts, the results for `C=CCc1ccc(OCCCCO)c(-c2cc(CC=C)cc(CN3CCC(N)CC3)c2O)c1` are 7.39 µM, 7.43 µM and 8.78 µM.
For the compound `C=CCc1ccc(O)c(-c2cc(CC=C)cc(CN3CCC(NC(=O)CCCN)CC3)c2O)c1`, the IC50 in the assay with HCC827, in the assay with NCI-H1975 and with NCI-H460 was more than 20 µM throughout.
In the case of `C=CCc1ccc(OC)c(-c2cc(CC=C)cc(CN3CCC(N)CC3)c2O)c1`, the concentration for half-maximal inhibition (IC50) with HCC827 worked out at 3.44 µM; in the assay with NCI-H1975, 4.1 µM; in the assay on NCI-H460, 4.27 µM.
On the same counts, the results for `C=CCc1ccc(O)c(-c2cc(CC=C)cc(CN3CCC(NC(=O)[C@@H]4CCCN4)CC3)c2O)c1` are more than 20 µM, more than 20 µM and more than 20 µM.
`C=CCc1ccc(OCCC)c(-c2cc(CC=C)cc(CN3CCC(N)CC3)c2O)c1`: the IC50 in the assay with HCC827 came out at 5.27 µM; with NCI-H1975, 4.97 µM; in the assay with NCI-H460, 4.85 µM.
On the same counts, the results for `C=CCc1ccc(OCCCO)c(-c2cc(CC=C)cc(CN3CCC(N)CC3)c2O)c1` are 6.29 µM, 6.98 µM and 6.66 µM.
On the same counts, the results for `C=CCc1ccc(O)c(-c2cc(CC=C)cc(CN3CCC(NC(=O)[C@H](N)CCSC)CC3)c2O)c1` are more than 20 µM, more than 20 µM and more than 20 µM.
On the same counts, the results for `C=CCCCCOc1ccc(CC=C)cc1-c1cc(CC=C)cc(CN2CCC(N)CC2)c1O` are 4.48 µM, 14 µM and 6.88 µM.
For the compound `C=CCc1ccc(O)c(-c2cc(CC=C)cc(CN3CCC(NC(=O)[C@@H](N)CCSC)CC3)c2O)c1`, the IC50 with HCC827, with NCI-H1975 and with NCI-H460 was more than 20 µM in each case.
With `C=CCc1ccc(OCC)c(-c2cc(CC=C)cc(CN3CCC(NC(=O)[C@@H](N)CO)CC3)c2O)c1`, the results for the IC50 with HCC827, with NCI-H1975 and in the assay with NCI-H460 were 5.42 µM, 6.98 µM and 6.15 µM, respectively.
For `C=CCc1ccc(OC2CCCC2)c(-c2cc(CC=C)cc(CN3CCC(N)CC3)c2O)c1`, the IC50 stood at 3.51 µM with HCC827, 6.37 µM with NCI-H1975 and 5.85 µM in the assay on NCI-H460.
On to `C=CCc1ccc(O)c(-c2cc(CC=C)cc(CN3CCC(NC(=O)[C@H](N)CO)CC3)c2O)c1`, for which the values for the IC50 with HCC827, with NCI-H1975 and with NCI-H460 were 9.05 µM, 10.3 µM and 8.32 µM, respectively.
In the case of `C=CCc1ccc(O)c(-c2cc(CC=C)cc(CN3CCC[C@@H]3CO)c2O)c1`, the IC50 with HCC827, in the assay on NCI-H1975 and in the assay with NCI-H460 was more than 20 µM in each case.
Take `C=CCc1ccc(O)c(-c2cc(CC=C)cc(CN3CC[C@H](O)C3)c2O)c1`: the IC50 with HCC827, in the assay on NCI-H1975 and in the assay on NCI-H460 was more than 20 µM each time.
Regarding `C=CCc1ccc(O)c(-c2cc(CC=C)cc(CN3CCC(NC(=O)[C@H](N)c4ccccc4)CC3)c2O)c1`, the half-inhibitory concentration (IC50) with HCC827 is 5.89 µM; in the assay on NCI-H1975 it was 6.85 µM; in the assay on NCI-H460, 6.43 µM.
`C=CCc1ccc(OCC)c(-c2cc(CC=C)cc(CN3CCC(NC(=O)[C@H](N)c4ccccc4)CC3)c2O)c1`: the IC50 with HCC827 amounted to 1.23 µM; with NCI-H1975, 7.31 µM; in the assay on NCI-H460, 1.46 µM.
For the compound `C=CCc1ccc(OCC2CCCO2)c(-c2cc(CC=C)cc(CN3CCC(N)CC3)c2O)c1` (stereo unspecified), the concentration for half-maximal inhibition (IC50) is 2.44 µM in the assay with HCC827, 5.72 µM in the assay on NCI-H1975 and 2.76 µM with NCI-H460.
On the same counts, the results for `C=CCc1ccc(O)c(-c2cc(CC=C)cc(CN3CCC(NC(=O)[C@H](C)N)CC3)c2O)c1` are more than 20 µM, more than 20 µM and 17.3 µM.
On the same counts, the results for `C=CCc1ccc(O)c(-c2cc(CC=C)cc(CN3CCC(NC(=O)[C@H]4CCCN4)CC3)c2O)c1` are more than 20 µM, more than 20 µM and more than 20 µM.
On the same counts, the results for `C=CCc1ccc(OC(C)C)c(-c2cc(CC=C)cc(CN3CCC(N)CC3)c2OC(C)C)c1` are 2.05 µM, 4.14 µM and 2.87 µM.
As to `C=CCc1ccc(O)c(-c2cc(CC=C)cc(Cn3cc(N)cn3)c2O)c1`, the half-inhibitory concentration (IC50) in the assay on HCC827 was 15.4 µM; in the assay with NCI-H1975 it was more than 20 µM; with NCI-H460, more than 20 µM.
Turning to `C=CCc1ccc(OCC)c(-c2cc(CC=C)cc(CN3CCC(N)CC3)c2OCC)c1`, the results for the half-maximal inhibitory concentration (IC50) in the assay on HCC827, in the assay on NCI-H1975 and in the assay with NCI-H460 were 2.12 µM, 3.45 µM and 3.64 µM, respectively.
On the same counts, the results for `C=CCc1ccc(O)c(-c2cc(CC=C)cc(CN3CCC(NC(=O)CCN)CC3)c2O)c1` are more than 20 µM, more than 20 µM and more than 20 µM.
On the same counts, the results for `C=CCc1ccc(OCCCCOC(C)=O)c(-c2cc(CC=C)cc(CN3CCC(N)CC3)c2O)c1` are more than 20 µM, more than 20 µM and more than 20 µM.
On the same counts, the results for `C=CCCOc1ccc(CC=C)cc1-c1cc(CC=C)cc(CN2CCC(N)CC2)c1O` are 4.3 µM, 12.2 µM and 6.12 µM.
For `C=CCc1ccc(OCCCC)c(-c2cc(CC=C)cc(CN3CCC(N)CC3)c2O)c1`, the IC50 was found to be 9.45 µM in the assay on HCC827, 10.4 µM with NCI-H1975 and 8.76 µM with NCI-H460.
On the same counts, the results for `C=CCc1ccc(O)c(-c2cc(CC=C)cc(CCCN3CCC(N)CC3)c2O)c1` are more than 20 µM, more than 20 µM and more than 20 µM.
On the same counts, the results for `C=CCc1ccc(O)c(-c2cc(CC=C)cc(Cn3ccc(N)n3)c2O)c1` are 16.2 µM, more than 20 µM and more than 20 µM.
On the same counts, the results for `C=CCc1ccc(O)c(-c2cc(CC=C)cc(CN3CCC(NC(=O)[C@@H](N)c4ccccc4)CC3)c2O)c1` are 12.3 µM, 15.9 µM and 15.8 µM.
As to `C=CCc1ccc(OCCCCCO)c(-c2cc(CC=C)cc(CN3CCC(N)CC3)c2O)c1`, the results for the IC50 in the assay on HCC827, in the assay with NCI-H1975 and in the assay on NCI-H460 were 8.71 µM, 9.65 µM and 10.2 µM, respectively.
On the same counts, the results for `C=CCc1ccc(O)c(-c2cc(CC=C)cc(CCCCN3CCC(N)CC3)c2O)c1` are more than 20 µM, more than 20 µM and more than 20 µM.
On the same counts, the results for `C=CCc1ccc(O)c(-c2cc(CC=C)cc(CN3CCC(NC(=O)[C@H](N)Cc4ccccc4)CC3)c2O)c1` are 4.74 µM, 4.08 µM and 4.32 µM.
On the same counts, the results for `C=CCc1ccc(OCCCCCC)c(-c2cc(CC=C)cc(CN3CCC(N)CC3)c2O)c1` are 12.5 µM, 12.3 µM and 9.46 µM.
With `C=CCc1ccc(O)c(-c2cc(CC=C)cc(CN3CCC(NC(=O)[C@@H](N)CC(C)C)CC3)c2O)c1`, the IC50 in the assay on HCC827, with NCI-H1975 and in the assay with NCI-H460 was more than 20 µM in each case.
`C=CCc1ccc(O)c(-c2cc(CC=C)cc(CN3CCC(NC(=O)[C@@H](N)CO)CC3)c2O)c1`: the results for the concentration for half-maximal inhibition (IC50) with HCC827, in the assay with NCI-H1975 and in the assay with NCI-H460 were 6.24 µM, 7.38 µM and 6.57 µM, respectively.
`C=CCc1ccc(O)c(-c2cc(CC=C)cc(CN3CCC(NC(=O)[C@@H](N)Cc4ccccc4)CC3)c2O)c1`: the results for the concentration for half-maximal inhibition (IC50) in the assay on HCC827, in the assay on NCI-H1975 and in the assay on NCI-H460 were 10.9 µM, 11.3 µM and 12.5 µM, respectively.
Take `C=CCc1ccc(OC(C)C)c(-c2cc(CC=C)cc(CN3CCC(NC(=O)[C@@H](N)CO)CC3)c2O)c1`: the values for the IC50 in the assay with HCC827, with NCI-H1975 and in the assay on NCI-H460 were 2.85 µM, 5.71 µM and 2.87 µM, respectively.
On the same counts, the results for `C=CCc1ccc(OC(C)C)c(-c2cc(CC=C)cc(CN3CCC(NC(=O)[C@H](N)c4ccccc4)CC3)c2O)c1` are 1.56 µM, 4.21 µM and 1.73 µM.
On the same counts, the results for `C=CCc1ccc(O)c(-c2cc(CC=C)cc(CN3CCC(NC(=O)[C@@H](C)N)CC3)c2O)c1` are more than 20 µM, more than 20 µM and more than 20 µM.
On the same counts, the results for `C=CCc1ccc(OCCCCCOC(C)=O)c(-c2cc(CC=C)cc(CN3CCC(N)CC3)c2OCCCCCOC(C)=O)c1` are more than 20 µM, more than 20 µM and more than 20 µM.
On to `C=CCc1ccc(O)c(-c2cc(CC=C)cc(CN3CCC(NC(=O)CCCCCN)CC3)c2O)c1`, for which the IC50 in the assay on HCC827, in the assay with NCI-H1975 and in the assay with NCI-H460 was more than 20 µM each time.
